Assay results taken from PMC11811597, “Phenomics‐Based Discovery of Novel Orthosteric Choline Kinase Inhibitors” (Angewandte Chemie (International Ed. in English), 2025).

Experiments:
[1] = test system: U2OS cells; assay: Cell Painting Assay (CPA); format: cell-based, human
Description: The described assay follows closely the method described by Bray et al.[15] Initially, 5 µL U2OS medium were added to each well of a 384-well plate (Revvity Phenoplate 384).
Subsequently, U2OS cell were seeded with a density of 1600 cells per well in 20 µL medium. The plate was incubated for 10 min at the ambient temperature, followed by an additional 4 h incubation (37 °C, 5% CO2). Compound treatment was performed with the Echo 520 acoustic dispenser (Beckman-Coulter) followed by incubation for 20 h (37 °C, 5% CO2). Subsequently, mitochondria were stained with Mito Tracker Deep Red (Thermo Fisher Scientific, Cat. No. M22426). The Mito Tracker Deep Red stock solution (1 mM) was diluted to a final concentration of 100 nM in prewarmed medium. The medium was removed from the plate leaving 10 µL residual volume and 25 µL of the Mito Tracker solution were added to each well. The plate was incubated for 30 min in darkness (37 °C, 5% CO2). To fix the cells […] of 18.5 % formaldehyde in PBS were added, resulting in a final formaldehyde concentration of […]. Subsequently, the plate was incubated for another 20 min in darkness (RT) and washed three times with 70 µL of PBS. (Agilent Washer Elx405). Cells were permeabilized by addition of 25 µL 0.1% Triton X-100 to each well, followed by 15 min incubation (RT) in darkness. The cells were washed three times with PBS leaving a final volume of 10 µL. To each well 25 µL of a staining solution were added, which contains 1% BSA, 5 µL/ml Phalloidin (Alexa594 conjugate, Thermo Fisher Scientific, A12381), 25 µg/ml Concanavalin A (Alexa488 conjugate, Thermo Fisher Scientific, Cat. No.
(Thermo Fisher Scientific, Cat. No. W11262) and 1.5 µM SYTO 14 solution (Thermo Fisher Scientific, Cat. No. S7576). The plate is incubated for 30 min (RT) in darkness and washed three times with 70 µl
PBS. After the final washing step, the PBS was not aspirated. The plates were sealed and centrifuged […]
The plates were prepared in triplicates with shifted layouts to reduce plate effects and imaged using a Micro XL High-Content Screening System (Molecular Devices) in 5 channels (DAPI: Ex350-400/ […]
The generated images were processed with the CellProfiler package (https://cellprofiler.org/, version 3.0.0) on a computing cluster of the Max Planck Society to extract 1716 cell features per microscope site. The data was then further aggregated as medians per well (9 sites -> 1 well), then over the three […]
Further analysis was performed with custom Python (https://www.python.org/) scripts using the Pandas (https://pandas.pydata.org/) and Dask (https://dask.org/) data processing libraries as well as the Scientific Python (https://scipy.org/) package (separate publication to follow).
From the total set of 1716 features, a subset of highly reproducible and robust features was determined using the procedure described by Woehrmann et al.[16] in the following way:
Two biological repeats of one plate containing reference compounds were analysed. For every feature, its full profile over each whole plate was calculated. If the profiles from the two repeats […]
set of 579 robust features out of the total of 1716 that was used for all further analyses.
The phenotypic profiles were compiled from the Z-scores of all individual cellular features, where the Z-score is a measure of how far away a data point is from a median value.
Specifically, Z-scores of test compounds were calculated relative to the Median of DMSO controls.
Thus, the Z-score of a test compound defines how many MADs (Median Absolute Deviations) the measured value is away from the Median of the controls as illustrated by the following formula:
z − score = […]
The phenotypic compound profile is then determined as the list of Z-scores of all features for one […]
(1 picture or pasted object on this page, not shown here)
In addition to the phenotypic profile, an induction value was determined for each compound as the […]
Induction [%] = number of features with abs. values > 3 […]

[2] = biological target: CHKA (Homo sapiens, UniProt P35790); assay: PISA thermal profiling, intact HepG2 cells; format: cell-based; design: endogenous in cells; host or cells: intact HepG2 cells; conditions: 30 µM; for effect_CETSA_Intact (PISA amplitude), CHKA: 60 min, n=3
Description: To further corroborate our findings, we next performed the proteome integral solubility alteration (PISA) assay in HepG2 human hepatoma cells that express high levels of CHKA. Conceptually building on the cellular thermal shift assay (CETSA) with mass spectrometry based detection,[19, 20] PISA leverages compound‐mediated stabilisation of target proteins without the need of chemical modification in intact cells. […]
Experiments were performed as described earlier with few modifications. In short, 3 replicates of intact HepG2 cells were treated with 30 µM UNC0638, […] or corresponding volume of DMSO in medium-free experimental buffer for 60 min at 37 °C with end-over-end rotation. For lysates: Washed K562 cells were resuspended in medium-free experimental buffer and lysed by three freeze-thaw cycles. Lysate was centrifugated 20,000 × g for 20 min at 4 °C to remove cell debris. The cleared lysate was treated with 30 µM UNC0638, UNC0373 or corresponding volume of DMSO for 15 min at RT with end-over-end rotation. Each treated cell suspension or lysate was divided into 12 aliquots and subjected to a 12-step heat gradient from 44 °C to 64 °C. All the temperature points were pooled together to form […] individual samples. Soluble fraction was separated from precipitated proteins […]
by centrifugation at 30,000 × g for 20 min at 4 °C. The soluble fractions were collected to fresh tubes and further processed to be analysed with mass spectrometry. Sample handling, TMT labelling, LC-MS/MS analysis, protein identification and data analysis was performed as described earlier.[12] […]
Biosciences) was used for data analysis. The blood was obtained under an approved ethical review from the Regional Ethical Review Board in Stockholm, approval number 2015/2001-31/2. The donors gave their consent to participate after written and oral information.

Sequence of CHKA (P35790 whole entry): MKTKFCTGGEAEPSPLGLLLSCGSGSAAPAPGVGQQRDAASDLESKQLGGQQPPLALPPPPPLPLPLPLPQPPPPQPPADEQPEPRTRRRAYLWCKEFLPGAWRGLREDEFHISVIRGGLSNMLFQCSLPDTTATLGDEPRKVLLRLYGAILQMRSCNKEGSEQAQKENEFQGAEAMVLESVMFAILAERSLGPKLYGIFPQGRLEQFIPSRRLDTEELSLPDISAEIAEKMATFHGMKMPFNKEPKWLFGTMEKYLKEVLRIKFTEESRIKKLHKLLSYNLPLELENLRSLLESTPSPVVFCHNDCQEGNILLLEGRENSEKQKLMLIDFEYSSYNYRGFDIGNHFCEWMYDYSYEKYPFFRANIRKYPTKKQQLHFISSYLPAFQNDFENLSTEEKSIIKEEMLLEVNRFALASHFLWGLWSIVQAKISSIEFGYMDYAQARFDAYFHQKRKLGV

Row | Compound | biosimilarity of UNC0638 and UNC0737 profiles (clustered together) [1] [%] | Biol.Sim. (%) ([1]; Conc 3.00 μM) | Cell Count (%) ([1]; Conc 3.00 μM) | Ind. (%) (% of parameters with significant changes) ([1]; Conc 3.00 μM) | Cell Count (%) ([1]; Conc 5.00 μM) | Ind. (%) (% of parameters with significant changes) ([1]; Conc 5.00 μM) | Biol.Sim. (%) ([1]; Conc 5.00 μM, morphological fingerprint similarity (no value printed for UNC0737 5 μM)) | stabilisation of CHKA (PISA) [2] | effect_CETSA_Intact (PISA amplitude), CHKA [2]
1 | COc1cc2c(NC3CCN(C(C)C)CC3)nc(C3CCCCC3)nc2cc1OCCCN1CCCC1 [UNC0638] | > 90 | 91 | 93 | 73 | 86 | 83 | 96 | significant stabilisation of CHKA | 0.57
2 | COc1cc2c(N(C)C3CCN(C(C)C)CC3)nc(C3CCCCC3)nc2cc1OCCCN1CCCC1 [UNC0737] | > 90 | 94 | 86 | 83 | 90 | 86 | – | significant stabilisation of CHKA | 0.619
